Test results taken from PubChem BioAssay AID1963445 (Molecular Pharmacology Branch, DTP, NCI, 2024).
Where “and” joins values, the source holds several entries; their conditions need not be identical. Equal values may be shown once. Each block holds one molecule with its values, some of them ahead of it.

Test system: MCF7 complex spheroid growth, % test/control
Assay: Anticancer human tumor MCF7 cell line growth inhibition [Asc];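 further: spheroids exposed to compounds for 7 days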;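 on viability, T/C: 100% = DMSO vehicle control wells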
Conditions: for viability, T/C: stronger effect = lower value
How it was run: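 Concentration series start at each agent's clinical Cmax, or at 10 microM when none is established, and drop in half-log steps; agents are applied alone or together to complex spheroids built with HUVEC and hMSC.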

[1] = curve of first compound, second compound 0.00949 µM
[2] = curve of first compound, second compound 0.03 µM
[3] = curve of first compound, second compound 0.0949 µM
[4] = curve of first compound, second compound 0.3 µM
[5] = curve of first compound, second compound 0.949 µM
[6] = curve of first compound, second compound 3 µM

- IC50 [1]: 1.38 µM
- IC50 [2]: 0.493 µM
- IC50 [3]: < 0.00949 µM
- IC50 [4]: < 0.00949 µM
- IC50 [5]: < 0.00949 µM
- IC50 [6]: < 0.00949 µM
SMILES: Cc1nc(N2CCC3(CC2)COC(C)C3N)c(CO)nc1Sc1ccnc(N)c1Cl (stereo not drawn) + CCN1C(C(=O)NC23CCC(C(=O)O)(CC2)CC3)C(c2cccc(Cl)c2F)C2(C(=O)Nc3cc(Cl)ccc32)C12CCCCC2
- viability, T/C (second compound 0.00949 µM, first compound 0.00949 µM): 109%
- viability, T/C (second compound 0.00949 µM, first compound 0.03 µM): 115%
- viability, T/C (second compound 0.00949 µM, first compound 0.0949 µM): 94.4%
- viability, T/C (second compound 0.00949 µM, first compound 0.3 µM): 99.9%
- viability, T/C (second compound 0.00949 µM, first compound 0.949 µM): 66.8%
- viability, T/C (second compound 0.00949 µM, first compound 3 µM): 12.5%
- viability, T/C (second compound 0.03 µM, first compound 0.00949 µM): 86.4%
- viability, T/C (second compound 0.03 µM, first compound 0.03 µM): 79.1%
- viability, T/C (second compound 0.03 µM, first compound 0.0949 µM): 88.5%
- viability, T/C (second compound 0.03 µM, first compound 0.3 µM): 77.3%
- viability, T/C (second compound 0.03 µM, first compound 0.949 µM): 14%
- viability, T/C (second compound 0.03 µM, first compound 3 µM): 11.1%
- viability, T/C (second compound 0.0949 µM, first compound 0.00949 µM): 50.3%
- viability, T/C (second compound 0.0949 µM, first compound 0.03 µM): 41.9%
- viability, T/C (second compound 0.0949 µM, first compound 0.0949 µM): 43.7%
- viability, T/C (second compound 0.0949 µM, first compound 0.3 µM): 29.9%
- viability, T/C (second compound 0.0949 µM, first compound 0.949 µM): 9.42%
- viability, T/C (second compound 0.0949 µM, first compound 3 µM): 10.3%
- viability, T/C (second compound 0.3 µM, first compound 0.00949 µM): 26%
- viability, T/C (second compound 0.3 µM, first compound 0.03 µM): 22.8%
- viability, T/C (second compound 0.3 µM, first compound 0.0949 µM): 20.8%
- viability, T/C (second compound 0.3 µM, first compound 0.3 µM): 18.5%
- viability, T/C (second compound 0.3 µM, first compound 0.949 µM): 5.2%
- viability, T/C (second compound 0.3 µM, first compound 3 µM): 7.09%
- viability, T/C (second compound 0.949 µM, first compound 0.00949 µM): 13.7%
- viability, T/C (second compound 0.949 µM, first compound 0.03 µM): 13.6%
- viability, T/C (second compound 0.949 µM, first compound 0.0949 µM): 12.8%
- viability, T/C (second compound 0.949 µM, first compound 0.3 µM): 6.58%
- viability, T/C (second compound 0.949 µM, first compound 0.949 µM): 5.44%
- viability, T/C (second compound 0.949 µM, first compound 3 µM): 5.91%
- viability, T/C (second compound 3 µM, first compound 0.00949 µM): 11.4%
- viability, T/C (second compound 3 µM, first compound 0.03 µM): 8.37%
- viability, T/C (second compound 3 µM, first compound 0.0949 µM): 10.1%
- viability, T/C (second compound 3 µM, first compound 0.3 µM): 6.66%
- viability, T/C (second compound 3 µM, first compound 0.949 µM): 6.63%
- viability, T/C (second compound 3 µM, first compound 3 µM): 11.7%

- IC50 (curve of compound): > 1 µM
SMILES: CCN1CCN(Cc2ccc(Nc3ncc(F)c(-c4cc(F)c5nc(C)n(C(C)C)c5c4)n3)nc2)CC1
- viability, T/C (compound 0.00316 µM): 111% and 93.3% and 96.7%
- viability, T/C (compound 0.01 µM): 95.5% and 104% and 99.9%
- viability, T/C (compound 0.0316 µM): 103% and 93.3% and 99.2%
- viability, T/C (compound 0.1 µM): 116% and 96.6% and 91.2%
- viability, T/C (compound 0.316 µM): 99% and 97% and 81.4%
- viability, T/C (compound 1 µM): 74.3% and 86.7% and 72.5%

- IC50 [1]: > 10 µM
- IC50 [2]: > 10 µM
- IC50 [3]: < 0.0316 µM
- IC50 [4]: < 0.0316 µM
- IC50 [5]: < 0.0316 µM
- IC50 [6]: < 0.0316 µM
SMILES: O=C(c1cc(Cc2n[nH]c(=O)c3ccccc23)ccc1F)N1CCN(C(=O)C2CC2)CC1 + CCN1C(C(=O)NC23CCC(C(=O)O)(CC2)CC3)C(c2cccc(Cl)c2F)C2(C(=O)Nc3cc(Cl)ccc32)C12CCCCC2
- viability, T/C (second compound 0.00949 µM, first compound 0.0316 µM): 133%
- viability, T/C (second compound 0.00949 µM, first compound 0.1 µM): 96.8%
- viability, T/C (second compound 0.00949 µM, first compound 0.316 µM): 107%
- viability, T/C (second compound 0.00949 µM, first compound 1 µM): 106%
- viability, T/C (second compound 0.00949 µM, first compound 3.16 µM): 92.3%
- viability, T/C (second compound 0.00949 µM, first compound 10 µM): 73%
- viability, T/C (second compound 0.03 µM, first compound 0.0316 µM): 85.6%
- viability, T/C (second compound 0.03 µM, first compound 0.1 µM): 81.5%
- viability, T/C (second compound 0.03 µM, first compound 0.316 µM): 87%
- viability, T/C (second compound 0.03 µM, first compound 1 µM): 86%
- viability, T/C (second compound 0.03 µM, first compound 3.16 µM): 74.2%
- viability, T/C (second compound 0.03 µM, first compound 10 µM): 62.2%
- viability, T/C (second compound 0.0949 µM, first compound 0.0316 µM): 46.7%
- viability, T/C (second compound 0.0949 µM, first compound 0.1 µM): 47.4%
- viability, T/C (second compound 0.0949 µM, first compound 0.316 µM): 51.4%
- viability, T/C (second compound 0.0949 µM, first compound 1 µM): 45.5%
- viability, T/C (second compound 0.0949 µM, first compound 3.16 µM): 38.9%
- viability, T/C (second compound 0.0949 µM, first compound 10 µM): 44.5%
- viability, T/C (second compound 0.3 µM, first compound 0.0316 µM): 34.3%
- viability, T/C (second compound 0.3 µM, first compound 0.1 µM): 30.3%
- viability, T/C (second compound 0.3 µM, first compound 0.316 µM): 32.8%
- viability, T/C (second compound 0.3 µM, first compound 1 µM): 30.6%
- viability, T/C (second compound 0.3 µM, first compound 3.16 µM): 29.4%
- viability, T/C (second compound 0.3 µM, first compound 10 µM): 29%
- viability, T/C (second compound 0.949 µM, first compound 0.0316 µM): 21%
- viability, T/C (second compound 0.949 µM, first compound 0.1 µM): 22.7%
- viability, T/C (second compound 0.949 µM, first compound 0.316 µM): 21.5%
- viability, T/C (second compound 0.949 µM, first compound 1 µM): 21.6%
- viability, T/C (second compound 0.949 µM, first compound 3.16 µM): 25.7%
- viability, T/C (second compound 0.949 µM, first compound 10 µM): 19.6%
- viability, T/C (second compound 3 µM, first compound 0.0316 µM): 13.7%
- viability, T/C (second compound 3 µM, first compound 0.1 µM): 16.2%
- viability, T/C (second compound 3 µM, first compound 0.316 µM): 14.4%
- viability, T/C (second compound 3 µM, first compound 1 µM): 14.9%
- viability, T/C (second compound 3 µM, first compound 3.16 µM): 18.9%
- viability, T/C (second compound 3 µM, first compound 10 µM): 15.9%

- IC50 (curve of compound): > 0.1 µM
SMILES: NC1CCC(NC2CC2c2ccccc2)CC1 (stereo not drawn)
- viability, T/C (compound 0.000316 µM): 89.7% and 112% and 107%
- viability, T/C (compound 0.001 µM): 115% and 132% and 136%
- viability, T/C (compound 0.00316 µM): 128% and 133% and 125%
- viability, T/C (compound 0.01 µM): 129% and 106% and 132%
- viability, T/C (compound 0.0316 µM): 136% and 104% and 108%
- viability, T/C (compound 0.1 µM): 102% and 147% and 137%
